# Test: Antitubercular activity against Mycobacterium tuberculosis H37Ra ATCC 25177 after 21 days by agar dilution method
# Assay type: functional
# Details: ATCC 25177, 504 h
row,SMILES,MIC
1,COc1ccc(-n2c(-c3ccc(C)cc3)cc(CN3CCSCC3)c2C)cc1,1 µg/mL
2,CCc1ccc(-c2cc(CN3CCSCC3)c(C)n2-c2ccc(OC)cc2)cc1,0.5 µg/mL
3,CSc1ccc(-n2c(-c3ccc(C)cc3)cc(CN3CCSCC3)c2C)cc1,1 µg/mL
4,CSc1ccccc1-n1c(-c2ccc(F)cc2)cc(CN2CCSCC2)c1C,8 µg/mL
5,CSc1ccc(-c2cc(CN3CCSCC3)c(C)n2-c2ccc(F)cc2)cc1,< 0.125 µg/mL
6,Cc1nn(-c2ccc(Cl)cc2)c(O)c1C(=O)c1ccccc1,25 µg/mL
7,O=S(=O)(Nc1nc2ccccc2[nH]1)c1ccc(Cl)cc1,32 µg/mL
8,Cc1nn(-c2ccccc2)c(O)c1C(=O)c1ccc([N+](=O)[O-])cc1,> 100 µg/mL
9,CC(C)c1[nH]n(-c2ccc(Cl)cc2)c(=O)c1C(=O)c1ccc(Cl)cc1,32 µg/mL
10,Cc1[nH]n(-c2ccc(Br)cc2)c(=O)c1C(=O)c1ccc(Cl)cc1,4 µg/mL
11,O=C(c1ccc(Cl)cc1)c1c(C(F)(F)F)[nH]n(-c2ccc(Cl)cc2)c1=O,> 64 µg/mL
12,CC(C)c1[nH]n(-c2ccccc2)c(=O)c1C(=O)c1ccc(Cl)cc1,64 µg/mL
13,O=C(c1ccc(Cl)cc1)c1c(-c2ccccc2)[nH]n(-c2ccc(Cl)cc2)c1=O,16 µg/mL
14,Cc1[nH]n(-c2ccccc2)c(=O)c1C(=O)c1cccc(F)c1,25 µg/mL
15,O=C(O[C@H](Cn1ccnc1)c1ccc(Cl)cc1)N1CCN(c2ccc(Cl)cc2)CC1,16 µg/mL
16,CC(C)c1ccc(NC(=O)O[C@H](Cn2ccnc2)c2ccc(F)cc2)cc1,16 µg/mL
17,O=C(NCCCn1ccnc1)O[C@H](Cn1ccnc1)c1ccc(F)cc1,32 µg/mL
18,O=C(Nc1ccc(Sc2ccc([N+](=O)[O-])cc2)cc1)O[C@H](Cn1ccnc1)c1ccc(Cl)cc1,16 µg/mL
19,Cc1nn2c(=O)c3c([nH]c2c1-c1ccc(Cl)cc1)CCC3,8 µg/mL
20,CCCc1cc(=O)n2nc(C)c(-c3ccc(Cl)cc3)c2[nH]1,8 µg/mL
21,Cc1cc(=O)n2nc(C)c(-c3ccc(Cl)cc3)c2[nH]1,32 µg/mL
22,O=C(O[C@H](Cn1ccnc1)c1ccc(F)cc1)N1CCN(c2ccc([N+](=O)[O-])cc2)CC1,32 µg/mL
23,Cc1cc(/C=N\OCc2ccccc2)c(C)n1-c1ccc(F)cc1,25 µg/mL
24,CCC/N=C(\c1ccc(Cl)cc1)c1c(C)nn(-c2ccc(Cl)cc2)c1O,> 100 µg/mL

row,SMILES,MIC
1,Clc1cccc(CSc2nnc(-c3ccc(Cl)cc3Cl)o2)c1,32 µg/mL
2,O=C(O[C@H](Cn1ccnc1)c1ccc(F)cc1)N1CCN(C(=O)c2ccco2)CC1,64 µg/mL
3,CCOc1ccc(NC(=O)C(Cc2ccccc2)N2C(=O)c3ccccc3C2=O)cc1 (centres undefined),32 µg/mL
4,CCN(Cc1cc2cc(C)c(C)cc2[nH]c1=O)c1ccc(OC)cc1C,> 64 µg/mL
5,Cc1cc(/C=N\OCc2cccc(F)c2)c(C)n1-c1ccc(F)cc1,> 100 µg/mL
6,O=C1NN(c2ccc(Cl)cc2)C(=O)/C1=C/c1ccc(Cl)cc1Cl,32 µg/mL
7,O=C(O[C@H](Cn1ccnc1)c1ccc(F)cc1)N1CCN(c2ccc(Cl)c(Cl)c2)CC1,16 µg/mL
8,O=C(O[C@H](Cn1ccnc1)c1ccc([N+](=O)[O-])cc1)N1CCN(c2ccc(Cl)c(Cl)c2)CC1,16 µg/mL
9,CCCc1cc(=O)n2nc(C)c(-c3ccc(OC)cc3)c2[nH]1,32 µg/mL
10,Cc1cc(/C=N\OCc2ccc(Cl)cc2)c(C)n1-c1ccc(F)cc1,50 µg/mL
11,CN1C(=O)C2C(N=C(Oc3ccc(Cl)cc3)N2Cc2cccc(F)c2)N(C)C1=O (centres undefined),64 µg/mL
12,Cc1nn(-c2ccccc2)c(O)c1C(=O)c1ccc2ccccc2c1,25 µg/mL
13,O=C(CSc1nc2cc(Cl)ccc2s1)c1ccc(Cl)cc1,32 µg/mL
14,O=C(O[C@H](Cn1ccnc1)c1cccc2ccccc12)N1CCN(c2ccc(Cl)c(Cl)c2)CC1,16 µg/mL
15,C=CCN1CC(c2nc3ccccc3n2Cc2cccc(Cl)c2)CC1=O (centres undefined),32 µg/mL
16,COc1ccc(CO/N=C\c2cc(C)n(-c3ccc(F)cc3)c2C)cc1,> 100 µg/mL
17,Cc1ccc(C2NC(=O)NC(O)(C(F)(F)F)C2C(=O)c2ccc(Cl)cc2)cc1 (centres undefined),32 µg/mL
18,O=C1C/C(=N\c2ccc(Cl)cc2)SC1Cc1ccc(Cl)cc1 (centres undefined),32 µg/mL
19,Cc1nn(C(C)CNC(=O)C2(c3ccc(Cl)cc3)CCOCC2)c(C)c1C (centres undefined),64 µg/mL
20,O=C1S/C(=C\c2ccc(-c3cccc(Cl)c3Cl)o2)C(=O)N1c1ccc(Cl)cc1,64 µg/mL
21,O=C(O[C@H](Cn1ccnc1)c1ccccc1)N1CCN(c2ccc(Cl)c(Cl)c2)CC1,16 µg/mL
22,Cc1nn(-c2ccc(Cl)cc2)c(O)c1/C(=N/C1CC1)c1ccc(Cl)cc1,> 100 µg/mL
23,C=C(C)Cn1c(S)nnc1CCn1c2ccc(Cl)cc2c2cc(Cl)ccc21,32 µg/mL
24,COc1ccc(-n2c(-c3ccc(Br)cc3)cc3c2CC(C)(C)CC3=O)c(OC)c1,64 µg/mL

row,SMILES,MIC
1,CCOC(=O)c1cnc2c(Cl)c(Cl)ccc2c1NCc1cccnc1,32 µg/mL
2,Cc1nn(-c2ccccc2)c(O)c1/C(=N/Cc1ccccc1)c1ccc(Cl)cc1,> 100 µg/mL
3,CCCOc1ccc2c(c1)sc1ncc(NC(=O)c3ccc(Cl)cc3)c(=O)n12,32 µg/mL
4,O=C(O[C@H](Cn1ccnc1)c1ccc(Cl)cc1Cl)N1CCN(c2ccc(Cl)c(Cl)c2)CC1,8 µg/mL
5,O=C(C1=C(O)C(=O)N(c2ccccc2)C1c1ccccc1F)c1ccc(Cl)cc1 (centres undefined),32 µg/mL
6,C=CCn1cnc2sc(C)c(-c3ccc(Cl)cc3)c2c1=O,32 µg/mL
7,O=C(O[C@H](Cn1ccnc1)c1ccc(Cl)cc1)N1CCN(C(=O)c2ccco2)CC1,64 µg/mL
8,Cc1nn(-c2ccccc2)c(O)c1C(=O)c1cccs1,50 µg/mL
9,Cc1nn(-c2ccccc2)c(O)c1C(=O)/C=C/c1ccccc1,50 µg/mL
10,Cc1nn(C(=O)c2cccc([N+](=O)[O-])c2)c(C)c1Sc1ccc(Cl)cc1,32 µg/mL
11,O=C(O[C@H](Cn1ccnc1)c1ccc(-c2ccccc2)cc1)N1CCN(c2ccc(Cl)c(Cl)c2)CC1,16 µg/mL
12,Clc1ccc(C2=CSC3=NN=C(SCc4ccccn4)C23)cc1 (centres undefined),64 µg/mL
13,Cc1cc(/C=N\OCc2ccc([N+](=O)[O-])cc2)c(C)n1-c1ccc(F)cc1,> 100 µg/mL
14,Cc1nn(-c2ccccc2)c(O)c1C(=O)c1cccnc1,> 100 µg/mL
15,Cc1nn(-c2ccc(Cl)cc2)c(O)c1/C(=N/OCc1ccccc1)c1ccc(Cl)cc1,> 100 µg/mL
16,Cc1ccc(-n2c(C)cc(/C=N\OCc3ccccc3)c2C)cc1,> 100 µg/mL
17,COCc1cc(=O)n2nc(C)c(-c3ccccc3OC)c2[nH]1,32 µg/mL
18,CN(C(=O)c1cccc(Cl)c1)c1nc(-c2ccccc2)cs1,64 µg/mL
19,COC(=O)C1=C(C)N(Cc2ccc(C)cc2)C(=O)/C1=C\c1ccc(C)cc1OC,32 µg/mL
20,COc1ccc(-n2c(SC)nnc2-c2ccc(Cl)cc2)c(OC)c1,32 µg/mL
21,Cc1nn(-c2ccc(F)cc2)c(OC(=O)c2ccccc2)c1C(=O)c1ccccc1,25 µg/mL
22,CO/N=C(\c1ccc(Cl)cc1)c1c(C)nn(-c2ccc(Cl)cc2)c1O,25 µg/mL
23,CO/N=C(\c1ccc(Cl)cc1)c1c(C)nn(-c2ccccc2)c1O,25 µg/mL
24,Cc1ccccc1C(=O)c1c(C)nn(-c2ccccc2)c1O,50 µg/mL

row,SMILES,MIC
1,O=C(O[C@H](Cn1ccnc1)c1ccc(F)cc1)N1CCN(c2ccc(Cl)cc2)CC1,16 µg/mL
2,COc1ccc(C(CNS(=O)(=O)N2CCCC2)c2c[nH]c3ccccc23)cc1 (centres undefined),32 µg/mL
3,O=C(Cc1noc(-c2ccncc2)n1)Nc1cc(Cl)cc(Cl)c1,32 µg/mL
4,Cc1nn(-c2ccccc2)c(O)c1/C(=N/OCc1ccccc1)c1ccc(Cl)cc1,> 100 µg/mL
5,Cc1cc(/C=N\OCc2ccccc2)c(C)n1-c1ccccc1,> 100 µg/mL
6,Cc1ccc(C(=O)Oc2c(C(=O)c3ccc(C)cc3)c(C)nn2-c2ccccc2)cc1,> 100 µg/mL
7,O=C(O[C@H](Cn1ccnc1)c1ccc(Cl)cc1)c1cccc(C(F)(F)F)c1,16 µg/mL
8,Cc1ncc(-c2cc(=O)n3nc(C)c(-c4ccc(Cl)cc4)c3[nH]2)c(C)n1,2 µg/mL
9,C/C(=N\OC(=O)COc1ccc(Cl)cc1Cl)c1ccc(Br)cc1,32 µg/mL
10,Cc1ccc(-n2nc(C)c(C(=O)c3ccc(Cl)cc3)c2O)cc1,16 µg/mL
11,Cc1c(C(=O)c2ccc(Cl)cc2)c(=O)n(-c2ccc(Cl)cc2)n1Cc1ccc(F)cc1,32 µg/mL
12,Cc1c(C(=O)c2ccc(Cl)cc2)c(=O)n(-c2ccc(Cl)cc2)n1Cc1ccccc1,16 µg/mL
13,Cc1c(C(=O)c2ccc(Cl)cc2)c(=O)n(-c2ccccc2)n1Cc1ccc(F)cc1,32 µg/mL
14,Cc1c(C(=O)c2ccc(Cl)cc2)c(=O)n(-c2ccc(Cl)cc2)n1Cc1ccc([N+](=O)[O-])cc1,32 µg/mL
15,COCc1cc(=O)n2nc(C)c(-c3ccc(Cl)cc3)c2[nH]1,16 µg/mL
16,Cc1c(C(=O)c2ccc(Cl)cc2)c(=O)n(-c2ccccc2)n1Cc1ccc([N+](=O)[O-])cc1,> 32 µg/mL
17,Cc1c(C(=O)c2ccc(Cl)cc2)c(=O)n(-c2ccccc2)n1Cc1ccccc1,> 64 µg/mL
18,CCc1c(CN2CCSCC2)cc(-c2ccc(F)cc2)n1-c1ccccc1F,2 µg/mL
19,CCc1c(CN2CCSCC2)cc(-c2ccccc2F)n1-c1ccccc1F,4 µg/mL
20,CCc1c(CN2CCSCC2)cc(-c2ccccc2)n1-c1ccccc1,2 µg/mL
21,CCc1c(CN2CCN(C)CC2)cc(-c2ccc(Cl)cc2)n1-c1ccc(Cl)cc1,2 µg/mL
22,CCc1c(CN2CCSCC2)cc(-c2ccccc2)n1-c1ccc(F)cc1,2 µg/mL
